Calls of active or inactive are those of the source. The rule behind the calls is not given here. Where only a bound is given, the exact number is not on record here.

The nature of series [1]: Cytotoxicity against HUVEC assessed as inhibition of cell growth incubated for 48 hrs by MTT assay. The class given is toxicity, cell-based. The following applies: human. On the technique in general: Tetrazolium assays rely on reduction of a dye to a coloured formazan, in cell work by metabolically active cells.
Series [2] relates to A-375. The experiment in a line: Antiproliferative activity against human A-375 cells assessed as inhibition of cell growth incubated for 48 hrs by MTT assay. Type of series: functional, cell-based. The following applies: A-375, 48 h.
Series [3] concerns HCT-116. Nature of the series: Antiproliferative activity against human HCT-116 cells assessed as inhibition of cell growth incubated for 48 hrs by MTT assay. Type of series: functional, cell-based. The following applies: HCT-116, 48 h.
The test system of series [4] is PC-3. Nature of the series: Antiproliferative activity against human PC-3 cells assessed as inhibition of cell growth incubated for 48 hrs by MTT assay. Type of series: functional, cell-based. The conditions noted are these: PC-3, 48 h.
Series [5] relates to MCF7. The experiment in a line: Antiproliferative activity against human MCF7 cells assessed as inhibition of cell growth incubated for 48 hrs by MTT assay. Type of series: functional, cell-based. The conditions noted are these: MCF7, 48 h.
The nature of series [6]: Cytotoxicity against human L02 cells assessed as inhibition of cell growth incubated for 48 hrs by MTT assay. Type of series: toxicity, cell-based.
Series [7] relates to MDA-MB-231. Nature of the series: Antiproliferative activity against human MDA-MB-231 cells assessed as inhibition of cell growth incubated for 48 hrs by MTT assay. The conditions noted are these: MDA-MB-231, 48 h. The class given is functional, cell-based.
In series [8] the test system is A549. The experiment in a line: Antiproliferative activity against human A549 cells assessed as inhibition of cell growth incubated for 48 hrs by MTT assay. Type of series: functional, cell-based. The conditions noted are these: A549, 48 h.
Series [9] has as its system A549. Nature of the series: Induction of cell cycle arrest in human A549 cells assessed as G2 phase cells at 1 uM incubated for 24 hrs by flow cytometric analysis (reference value: 15.75 %). The class given is functional. In general terms: A flow cytometer gives signals particle by particle.
Series [10] relates to A549. Nature of the series: Induction of apoptosis in human A549 cells at 4 uM by Annexin V-FITC/PI staining based flow cytometric analysis. The class given is functional, cell-based. The following applies: time 12-48 hrs, TDE = time-dependent effect.
Series [11] has as its system A549. Nature of the series: Induction of cell cycle arrest in human A549 cells assessed as G1 phase cells at 1 uM incubated for 24 hrs by flow cytometric analysis (reference value: 60.75 %). Type of series: functional.
Series [12] relates to A549. Nature of the series: Induction of cell cycle arrest in human A549 cells assessed as G1 phase cells at 2 uM incubated for 24 hrs by flow cytometric analysis (reference value: 60.75 %). Type of series: functional.
Series [13] can be described thus: Toxicity in mouse assessed as effect on heart pathology at 10 to 20 mg/kg, ip administered for 7 days and measured every 2 days. Type of series: organism-based. The following applies: in vivo, 168 h, dose 10-20 mg/kg, time 7 day.
Series [14] is described as follows: Toxicity in mouse assessed as effect on lung pathology at 10 to 20 mg/kg, ip administered for 7 days and measured every 2 days. The class given is organism-based. The conditions noted are these: in vivo, 168 h, dose 10-20 mg/kg, time 7 day.
Series [15] deals with A549. Nature of the series: Inhibition of cell migration in human A549 cells at 2 uM incubated for 48 hrs by wound healing assay. Type of series: functional, cell-based.
Series [16] relates to A549. The experiment in a line: Induction of apoptosis in human A549 cells assessed as total apoptotic cells at 4 uM incubated for 48 hrs by Annexin V-FITC/PI staining based flow cytometric analysis relative to control. The class given is functional.
In series [17] the test system is A549. Nature of the series: Induction of mitochondrial membrane depolarization in human A549 cells assessed as increase in green fluorescence by measuring JC-1 monomer at 2 to 8 uM incubated for 4 hrs by JC-1 dye based assay. The class given is functional, cell-based. The following applies: dose 2-8 µM.
Series [18] deals with A549. The experiment in a line: Induction of cell cycle arrest in human A549 cells assessed as S phase cells at 4 uM incubated for 24 hrs by flow cytometric analysis (reference value: 23.49 %). The class given is functional.
Series [19] concerns A549. The experiment in a line: Induction of apoptosis in human A549 cells assessed as total apoptotic cells at 1 uM incubated for 48 hrs by Annexin V-FITC/PI staining based flow cytometric analysis relative to control. The class given is functional.
Series [20] has as its system A549. The experiment in a line: Induction of cell cycle arrest in human A549 cells assessed as S phase cells at 2 uM incubated for 24 hrs by flow cytometric analysis (reference value: 23.49 %). Type of series: functional.
A short description of series [21]: Toxicity in mouse assessed as death at 10 to 20 mg/kg, ip administered for 7 days and measured every 2 days. The class given is organism-based. The following applies: in vivo, 168 h, dose 10-20 mg/kg, time 7 day.
Series [22] deals with A549. Nature of the series: Induction of cell cycle arrest in human A549 cells assessed as G1 phase cells at 4 uM incubated for 24 hrs by flow cytometric analysis (reference value: 60.75 %). The class given is functional.
The subject of series [23] is A549. Nature of the series: Induction of mitochondrial membrane depolarization in human A549 cells assessed as increase in JC-1 monomer ratio at 2 to 8 uM incubated for 24 hrs by JC-1 staining based flow cytometric analysis. The class given is functional, cell-based. The conditions noted are these: dose 2-8 µM.
A short description of series [24]: Toxicity in mouse assessed as effect on liver pathology at 10 to 20 mg/kg, ip administered for 7 days and measured every 2 days. The class given is organism-based. The conditions noted are these: in vivo, 168 h, dose 10-20 mg/kg, time 7 day.
The nature of series [25]: Toxicity in mouse assessed as effect on body weight at 20 mg/kg, ip administered for 7 days and measured every 2 days. The class given is organism-based. The following applies: in vivo, 168 h, time 7 day.
For series [26], the system named is A549. The experiment in a line: Induction of apoptosis in human A549 cells assessed as total apoptotic cells at 2 uM incubated for 48 hrs by Annexin V-FITC/PI staining based flow cytometric analysis relative to control. Type of series: functional.
The nature of series [27]: Toxicity in mouse assessed as effect on spleen pathology at 10 to 20 mg/kg, ip administered for 7 days and measured every 2 days. The following applies: in vivo, 168 h, dose 10-20 mg/kg, time 7 day. Type of series: organism-based.
Series [28] has as its system A549. Nature of the series: Inhibition of cell invasion in human A549 cells at 2 to 4 uM incubated for 24 hrs by transwell invasion assay. The class given is functional, cell-based. The following applies: dose 2-4 µM.
Series [29] in a line: Toxicity in mouse assessed as clinical signs at 10 to 20 mg/kg, ip administered for 7 days and measured every 2 days. Type of series: organism-based. The following applies: in vivo, 168 h, dose 10-20 mg/kg, time 7 day.
Series [30] concerns A549. The experiment in a line: Induction of mitochondrial membrane depolarization in human A549 cells assessed as loss of red fluorescence at 2 to 8 uM incubated for 4 hrs by TMRM staining based fluorescence assay. Type of series: functional, cell-based. The conditions noted are these: dose 2-8 µM.
Series [31] deals with A549. The experiment in a line: Antiproliferative activity against human A549 cells assessed as inhibition of cell growth preincubated with FCCP for 1 hrs followed by compound addition and measured after 48 hrs by MTT assay. The class given is functional, cell-based.
The subject of series [32] is A549. The experiment in a line: Induction of cell cycle arrest in human A549 cells assessed as G2 phase cells at 4 uM incubated for 24 hrs by flow cytometric analysis (reference value: 15.75 %). The class given is functional.
For series [33], the system named is A549. The experiment in a line: Induction of cell cycle arrest in human A549 cells assessed as S phase cells at 1 uM incubated for 24 hrs by flow cytometric analysis (reference value: 23.49 %). Type of series: functional.
The nature of series [34]: Toxicity in mouse assessed as effect on kidney pathology at 10 to 20 mg/kg, ip administered for 7 days and measured every 2 days. The class given is organism-based. The following applies: in vivo, 168 h, dose 10-20 mg/kg, time 7 day.
In series [35] the test system is A549. The experiment in a line: Induction of cell cycle arrest in human A549 cells assessed as G2 phase cells at 2 uM incubated for 24 hrs by flow cytometric analysis (reference value: 15.75 %). The class given is functional.

The term IC50 denotes the point on the concentration scale where inhibition reaches its midpoint. In the case of `CO[C@@]12[C@H](COC(N)=O)C3=C(C(=O)C(C)=C(N)C3=O)N1C[C@H]1[C@@H]2N1C(=O)CCCCCCCCCCC[P+](c1ccccc1)(c1ccccc1)c1ccccc1`, the half-maximal inhibitory concentration (IC50) at 48 h was more than 5000 nM in [1] and more than 2500 nM in series [6]. Moreover, the 50% inhibitory concentration (IC50) in series [2] came out at 640 nM; in series [3] it was 750 nM; in series [4], 970 nM; in series [5], 4560 nM; in [7], 2630 nM; in series [8], 670 nM.

In the case of `CO[C@@]12[C@H](COC(N)=O)C3=C(C(=O)C(C)=C(N)C3=O)N1C[C@H]1[C@@H]2N1C(=O)CCCCCCC[P+](c1ccccc1)(c1ccccc1)c1ccccc1`, the IC50 at 48 h in series [1] and in series [6] was more than 20000 nM throughout. Further, the concentration for half-maximal inhibition (IC50) in [2] was found to be 1860 nM; in [3], 1230 nM; in [4], 11900 nM; in [5], 6590 nM; in series [7], 7640 nM; in series [8], 1310 nM.

On to `CO[C@@]12[C@H](COC(N)=O)C3=C(C(=O)C(C)=C(N)C3=O)N1C[C@H]1[C@@H]2N1CCCCCCCCCC[P+](c1ccccc1)(c1ccccc1)c1ccccc1` (some centres undefined), for which the IC50 at 48 h in series [1] is 10000 nM; in series [6] it was more than 5000 nM. Besides, the half-maximal inhibitory concentration (IC50) worked out at 1960 nM in [2]; 1960 nM in series [3]; 4710 nM in series [4]; 3170 nM in series [5]; 1950 nM in series [7]; 2820 nM in [8].

For the compound `CO[C@@]12[C@H](COC(N)=O)C3=C(C(=O)C(C)=C(N)C3=O)N1C[C@H]1[C@@H]2N1C(=O)CCCCCCCCC[P+](c1ccccc1)(c1ccccc1)c1ccccc1.[Br-]`, the Activity was 34.21% in series [9]; “Tde” in series [10]; 14.87% in [11]; 5.79% in [12]; “Non-Toxic” in series [13]; “Non-Toxic” in series [14]. For the same compound, the Activity in series [16] is 24.9%; in series [18], 84.94%; in series [19], 18%; in [20], 49.53%; in series [21], “Non-Toxic”; in [22], 0.72%. Further, the Activity entry is on record as “Non-Toxic” in [24]; “Non-Toxic” in series [25]; 20.2% in series [26]; “Non-Toxic” in series [27]; “Non-Toxic” in series [29]; 14.35% in series [32]. Besides, the Activity in series [33] is recorded as 50.92%; in series [34] it was “Non-Toxic”; in series [35], 44.68%. For the same compound, the concentration for half-maximal inhibition (IC50) at 48 h in series [1] and in [6] was more than 20000 nM throughout. Further, the inhibition result in series [15] and in [28] was “Active” throughout. Moreover, the IC50 in series [2] is 1460 nM; in series [3], 1220 nM; in [4] it was 6050 nM; in series [5], 5450 nM; in series [7] it was 3110 nM; in series [8], 1090 nM. Moreover, the 50% inhibitory concentration (IC50) in [31] came to 11300 nM. The result in [17], in [23] and in series [30] was Active.

(Values after ChEMBL document CHEMBL5150024, “Design and synthesis of TPP+-Mitomycin C conjugate with reduced toxicity” (Bioorg Med Chem Lett, 2022).)
